{"source": "paper PMC10135756", "about": "(2023)", "key": {"[1]": {"test_system": "CSS.1-42 (DNA, aptamer) GACGACGCCCGCATGTTCCATGGATAGTCTTGACTAGTCGTC", "experiment": "SGI fluorescence increase, microplate", "conditions": "100 mM NaCl, 10 mM MgCl2; 20 mM HEPES pH 7.5; 0.1× SGI, 1 μM aptamer; with and without 0.01% Triton X-100; up to 6 μM"}, "[2]": {"test_system": "DNA1 (DNA, other) ACGACACGGAGGCTTAGTTTGCTAAATGGTCATGTCGT", "experiment": "SGI fluorescence", "conditions": "500 mM NaCl, 20 mM MgCl2; 50 mM Tris pH 7.6; 0.02× SGI, 200 nM DNA1"}, "[3]": {"test_system": "CSS.1-42 (DNA, aptamer) GACGACGCCCGCATGTTCCATGGATAGTCTTGACTAGTCGTC", "experiment": "SGI fluorescence", "conditions": "100 mM NaCl, 10 mM MgCl2; 20 mM HEPES pH 7.5; 0.1× SGI, 1 μM aptamer"}, "[4]": {"test_system": "Ade Apt M2 (DNA, aptamer) ACCTGGGGTAGTATTGCGGAGTAAGGT", "experiment": "ThT displacement fluorescence, quartz cuvette", "conditions": "50 mM NaCl, 4 mM MgCl2; 10 mM HEPES pH 7.6, 20 °C; 2 μM ThT; up to 500 μM"}, "[5]": {"test_system": "Ade Apt (adenosine aptamer, WT) (DNA, aptamer) ACCTGGGGGAGTATTGCGGAGGAAGGT", "experiment": "ThT displacement fluorescence, quartz cuvette", "conditions": "50 mM NaCl, 4 mM MgCl2, 10 mM HEPES pH 7.6, 20 °C"}, "[6]": {"test_system": "Ade Apt (adenosine aptamer, WT) (DNA, aptamer) ACCTGGGGGAGTATTGCGGAGGAAGGT", "experiment": "ThT fluorescence", "conditions": "50 mM NaCl, 4 mM MgCl2; 10 mM HEPES pH 7.6; 2 μM ThT, 100 nM aptamer"}}}
{"smiles": "C[C@]12CCC(=O)C=C1CC[C@@H]1[C@@H]2[C@@H](O)C[C@@]2(C)[C@H]1CC[C@]2(O)C(=O)CO", "values": [{"measurement": "binding", "setting": "[1]", "result": "yes"}]}
{"smiles": "CCCN(CCCN(C)C)c1cc(C=C2Sc3ccccc3N2C)c2ccccc2[n+]1-c1ccccc1", "values": [{"measurement": "binding", "setting": "[2]", "result": "yes"}, {"measurement": "binding", "setting": "[3]", "result": "weak"}]}
{"smiles": "Nc1ncnc2c1ncn2[C@@H]1O[C@H](CO)[C@@H](O)[C@H]1O", "values": [{"measurement": "binding", "setting": "[4]", "result": "no"}, {"measurement": "Kd", "setting": "[5]; 2 μM ThT displaced, 100 nM aptamer, 10 min equilibration, apparent", "result": "16.6 ± 8.4", "unit": "µM"}]}
{"smiles": "Nc1nc2c(ncn2[C@@H]2O[C@H](CO)[C@@H](O)[C@H]2O)c(=O)[nH]1", "values": [{"measurement": "binding", "setting": "[5]; 2 μM ThT, up to 500 μM", "result": "no"}]}
{"smiles": "Cc1ccc2c(c1)sc(-c1ccc(N(C)C)cc1)[n+]2C", "values": [{"measurement": "binding", "setting": "[6]", "result": "yes"}]}
